For 1 compound, destabilization of helices and reduced affinity results are on record in patent US8688387B2, “Method for the determination of intra- and intermolecular interactions in aqueous solution” (Bayer CropScience AG, priority 2006, dated 2014).

Test [1] deals with helix. The settings on record: aqueous solution, compared to the helices with thymidin; cited from earlier work.
Test [2] concerns helix. Put plainly: Destabilization of a helix in which thymidin is replaced. The settings on record: corresponding to the 16 kJ/mol destabilization. From the text:
The importance of a complete H-bond network in nucleotide recognition has been investigated. Molecular recognition usually involves several H-bonds. The influence of unsatisfied interfacial H-bond functions can be seen in the destabilization of a helix in which thymidin is replaced by difluortoluoldesoxynucleosid. The experiments have shown that these helices exist in aqueous solution but are destabilized by 16 kJ/mol compared to the helices with thymidin (Moran et al., J. Am. Chem. Soc. 1997, 119: 2056-2057). The authors conclude that the specificity of base pair recognition may not be due to H-bonding but to space filling since the modified base is incorporated into the double helix even though the H-bond cannot be made. […] This value agrees well with the mismatched pairing observed for the incorporation of nucleotides into DNA by polymerase enzymes (1 in 10^3-10^5) (Loeb and Kunkel, Annu. Rev. Biochem. 1982: 52, 429) and the preference of correct tRNA compared to near cognate tRNA in the codon:anticodon recognition (1 in 10^−3.5) (Thompson and Karim, Proc. Natl. Acad. Sc. U.S.A. 1982, 79: 4922-26).

Regarding `Cc1cc([C@H]2C[C@H](O)[C@@H](CO)O2)c(F)cc1F` [difluortoluoldesoxynucleosid], the destabilization of helices in test [1] is 3.82 kcal/mol. Moreover, in test [2], the reduced affinity was 1000-10000 times.
